Patent US20050222078A1, “Use of pyrimidine nucleotides for the treatment of affections of the peripheral nervous system” (priority 2002, published 2005)

Tests used:
[1] = test system: traumatically affected peripheral nerves; settings: Wistar rats, B. Wattig et al. 1991; cited from earlier work
patients with lumbago = experiment: Clinical study of UMP versus placebo in patients with lumbago; type: in vivo
Description: In the following the effectivity of pyrimidine nucleotides for the treatment of affections of the peripheral nervous system as well as for the stimulation of the regeneration of nerves is described by example of uridine-5′-monophosphate (UMP) by example of the indication lumbago. 80 female as well as male patients, aged between 20 and 63 years, were separated randomly into two groups, one was treated with UMP and the other with placebo. The treatment ranged over four consecutive days, whereas the treatment could be terminated ahead of schedule as soon as the symptoms were ameliorating in a way, that a further treatment was needless. Applied was once per day into a vein of the arm an injection solution of 19.349 mg UMP (this corresponds to a mass of 12.834 mg uridine) in 250 ml of physiological sodium chloride solution over a time period of 30 minutes. The comparison group received as placebo only the 250 ml of physiological sodium chloride solution without an active agent. For this clinical study only patients were chosen with a pain intensity of at least 40 mm on the VAS scale (VAS: visual analogue scale). The pain intensity is given on the linear VAS scale in the unit “mm” and was determined by prompting the patients to mark on the linear VAS scale the point, which corresponded to their respective pain intensity. Thereby a non sensible pain was given with the value 0 mm and the possibly maximum pain with the value 100 mm. The pain intensity of the patients was continuously checked, whereas the patients also had to indicate the respective duration of the single pain periods. Table 1 proves, that already after a short time period after the initial injection the pain intensity strongly decreases in the resting and moving state in the case of the UMP patient group. The finger-floor distance represents a measure for the mobility, i.e. for the grade of capability to bend the back, and is given in the unit “cm”, whereas the distance between the finger tip in the case of outstretched arms and the curvature in the case of maximal possible bending of the back was measured.

[2] = decrease in the UMP patient group
[3] = decrease of pain in the UMP patient group, VAS
[4] = difference of decrease, UMP versus placebo group

| Structure (SMILES) | Filament area of nerve filaments (myelin and axon areas) [1] | Presence of myogelosis (patients with lumbago; UMP patient group, 24 h after inj., base line 100%) [%] | Pain during resting state (patients with lumbago; VAS scale, average of UMP patient group, 24 h after inj., 19.349 mg UMP i.v. once per day, base line 60.3) [mm] | Pain during movement (patients with lumbago; VAS scale, average of UMP patient group, 24 h after inj., base line 76.1) [mm] | Daily duration of pain (patients with lumbago; average of UMP patient group, 24 h after inj., base line 15.8) [h] | Finger-floor distance (patients with lumbago; average of UMP patient group, 24 h after inj., base line 43.8) [cm] | Δ UMP, Daily duration of pain (patients with lumbago; [2]) [h] | Δ UMP, Finger-floor distance (patients with lumbago; [2]) [cm] | Δ UMP, Pain during movement (patients with lumbago; [3]) [mm] | Δ UMP, Pain during resting state (patients with lumbago; [3]) [mm] | Δ UMP − Δ Placebo, Daily duration of pain (patients with lumbago; [4]) [h] | Δ UMP − Δ Placebo, Finger-floor distance (patients with lumbago; [4]) [cm] | Δ UMP − Δ Placebo, Pain during movement (patients with lumbago; [4]) [mm] | Δ UMP − Δ Placebo, Pain during resting state (patients with lumbago; [4]) [mm] | Absolute values of test parameters (pain, daily duration of pain, finger-floor distance) versus placebo group (patients with lumbago; during the further three days) | Decrease in pain compared to placebo patients (patients with lumbago; within the initial 24 h after the first injection) |
| --- | --- | --- | --- | --- | --- | --- | --- | --- | --- | --- | --- | --- | --- | --- | --- | --- |
| Nc1ccn([C@@H]2O[C@H](COP(=O)(O)O)[C@@H](O)[C@H]2O)c(=O)n1 [CMP, cytidine-5′-monophosphate] | no comparable results |  |  |  |  |  |  |  |  |  |  |  |  |  |  |  |
| O=c1ccn([C@@H]2O[C@H](COP(=O)(O)O)[C@@H](O)[C@H]2O)c(=O)[nH]1 [UMP, uridine-5′-monophosphate] | no comparable results | 90 | 46.2 | 56.9 | 10.7 | 32.5 | -4.3 | −10.1 | −17.9 | −12.8 | -1.4 | −2.7 | −6.8 | −3.4 | always below the corresponding absolute values for the placebo group | clear decrease in pain |
